Source: patent US20220062240A1, “METHODS OF TREATING CANCER USING A CLK INHIBITOR” (BioSplice Therapeutics, Inc., priority 2018, published 2022)
Like-named read-outs stand apart in the source and are kept apart here.

Tests used:
CLK2 = biological target: T1, CLK2 (Homo sapiens, UniProt P49760); assay: CLK2 kinase activity assay (Z-lyte, Ser/Thr 6 peptide); assay type: biochemical; settings: recombinant CLK2 kinase, ATP 60 μM; read-out: EC50
T1 construct: purchased Thermo Fisher (Life Technologies), Z'-LYTE Kinase Assay Kits
T1 sequence (P49760 whole entry): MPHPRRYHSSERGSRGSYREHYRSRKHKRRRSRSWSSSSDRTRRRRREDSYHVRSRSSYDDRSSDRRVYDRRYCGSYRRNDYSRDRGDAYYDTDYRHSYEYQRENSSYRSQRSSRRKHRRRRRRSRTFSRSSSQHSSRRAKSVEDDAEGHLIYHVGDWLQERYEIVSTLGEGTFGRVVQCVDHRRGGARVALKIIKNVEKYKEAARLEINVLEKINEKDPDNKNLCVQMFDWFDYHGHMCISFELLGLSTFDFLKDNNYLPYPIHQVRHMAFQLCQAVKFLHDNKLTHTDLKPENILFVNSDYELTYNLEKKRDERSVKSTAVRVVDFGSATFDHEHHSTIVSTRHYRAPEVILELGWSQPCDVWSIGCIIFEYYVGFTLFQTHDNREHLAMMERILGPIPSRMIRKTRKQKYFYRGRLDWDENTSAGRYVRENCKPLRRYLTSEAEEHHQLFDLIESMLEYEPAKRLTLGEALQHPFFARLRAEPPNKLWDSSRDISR
Description: All reactions were performed in duplicate.

BT-549 = assay: CellTiter-Glo Viability Assay, breast cancer; assay type: cell-based; settings: Homo sapiens, 96 h; BT-549, breast cancer, four days; read-out: EC50
CAMA1 = assay: CellTiter-Glo Viability Assay, breast cancer; assay type: cell-based; settings: Homo sapiens, CAMA-1, 96 h; CAMA1, breast cancer, four days; read-out: EC50
DU4475 = assay: CellTiter-Glo Viability Assay, breast cancer; assay type: cell-based; settings: Homo sapiens, DU-4475, 96 h; DU4475, breast cancer, four days; read-out: EC50
HCC1599 = assay: CellTiter-Glo Viability Assay, breast cancer; assay type: cell-based; settings: Homo sapiens, 96 h; HCC1599, breast cancer, four days; read-out: EC50
MCF7 = assay: CellTiter-Glo Viability Assay, breast cancer; assay type: cell-based; settings: Homo sapiens, 96 h; MCF7, breast cancer, four days; read-out: EC50
MDA-MB-231-Luc = assay: CellTiter-Glo Viability Assay, breast cancer; assay type: cell-based; settings: Homo sapiens, 96 h; MDA-MB-231-Luc, breast cancer, four days; read-out: EC50
T47D = assay: CellTiter-Glo Viability Assay, breast cancer; assay type: cell-based; settings: Homo sapiens, 96 h, breast cancer, four days, read-out: EC50
ZR-75-1 = assay: CellTiter-Glo Viability Assay, breast cancer; assay type: cell-based; settings: Homo sapiens, 96 h; ZR-75-1, breast cancer, four days; read-out: EC50
all 50 cell lines = assay: CellTiter-Glo Viability Assay, average across all cell lines; assay type: cell-based; settings: Homo sapiens; across all 50 cell lines; read-out: average EC50 for inhibition of cancer cell proliferation
Method in brief: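 Cancer cell lines of several tumour types plated at 300-3,000 cells/well and exposed to compound in duplicate for four days at 37° C, 5% CO2, with DMSO-treated controls. Viability read by CellTiter-Glo luminescence (ATP content); EC50 derived from dose-response curves.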

[1] = tested on: colorectal cancer (6 cell lines); assay: CellTiter-Glo Viability Assay, colorectal cancer; assay type: cell-based; settings: Homo sapiens, inhibition of cancer cell proliferation
[2] = tested on: haematopoietic & lymphoid tumors (13 cell lines); assay: CellTiter-Glo Viability Assay, haematopoietic & lymphoid tumors; assay type: cell-based; settings: Homo sapiens, inhibition of cancer cell proliferation
[3] = tested on: liver cancer (3 cell lines); assay: CellTiter-Glo Viability Assay, liver cancer; assay type: cell-based; settings: Homo sapiens, inhibition of cancer cell proliferation
[4] = tested on: lung cancer (4 cell lines); assay: CellTiter-Glo Viability Assay, lung cancer; assay type: cell-based; settings: Homo sapiens, inhibition of cancer cell proliferation
[5] = tested on: ovarian cancer (4 cell lines); assay: CellTiter-Glo Viability Assay, ovarian cancer; assay type: cell-based; settings: Homo sapiens, inhibition of cancer cell proliferation
[6] = tested on: pancreatic cancer (8 cell lines); assay: CellTiter-Glo Viability Assay, pancreatic cancer; assay type: cell-based; settings: Homo sapiens, inhibition of cancer cell proliferation
[7] = tested on: prostate cancer (5 cell lines); assay: CellTiter-Glo Viability Assay, prostate cancer; assay type: cell-based; settings: Homo sapiens

EC50 (CLK2): 0.0053 µM | EC50 (BT-549): > 10 µM | EC50 (CAMA1): > 10 µM | EC50 (DU4475): 0.387 µM | EC50 (HCC1599): 0.026 µM | EC50 (MCF7): > 10 µM | EC50 (MDA-MB-231-Luc): > 10 µM | EC50 (T47D): > 10 µM | EC50 (ZR-75-1): > 10 µM | EC50 ([1]; HCT-116, HCT116 cell line, read-out: Colorectal cancer, EC50 (μM) HCT116): > 10 µM | EC50 ([1]; HT-29, HT29 cell line, read-out: Colorectal cancer, EC50 (μM) HT29): > 10 µM | EC50 ([1]; SW-620, SW620 cell line, read-out: Colorectal cancer, EC50 (μM) SW620): > 10 µM | EC50 ([1]; DLD-1 cell line, read-out: Colorectal cancer, EC50 (μM) DLD-1): > 10 µM | EC50 ([1]; SW48 cell line, read-out: Colorectal cancer, EC50 (μM) SW48): 0.393 µM | EC50 ([2]; DND41, DND-41 cell line, read-out: Haematopoietic & Lymphoid tumors, EC50 (μM) DND-41): 7.8 µM | EC50 ([2]; MV4-11, MV-4-11 cell line, read-out: Haematopoietic & Lymphoid tumors, EC50 (μM) MV-4-11): 0.19 µM | EC50 ([2]; Rec1, REC-1 cell line, read-out: Haematopoietic & Lymphoid tumors, EC50 (μM) REC-1): > 10 µM | EC50 ([2]; SU-DHL-4, SUDHL4 cell line, read-out: Haematopoietic & Lymphoid tumors, EC50 (μM) SUDHL4): > 10 µM | EC50 ([2]; HL-60 cell line, read-out: Haematopoietic & Lymphoid tumors, EC50 (μM) HL-60): > 10 µM | EC50 ([2]; JM1 cell line, read-out: Haematopoietic & Lymphoid tumors, EC50 (μM) JM1): > 10 µM | EC50 ([2]; JURKAT, Clone E6-1 cell line, read-out: Haematopoietic & Lymphoid tumors, EC50 (μM) JURKAT, Clone E6-1): > 10 µM | EC50 ([2]; JeKo-1 cell line, read-out: Haematopoietic & Lymphoid tumors, EC50 (μM) JeKo-1): 0.452 µM | EC50 ([2]; KASUMI-1 cell line, read-out: Haematopoietic & Lymphoid tumors, EC50 (μM) KASUMI-1): > 10 µM | EC50 ([2]; Loucy cell line, read-out: Haematopoietic & Lymphoid tumors, EC50 (μM) Loucy): > 10 µM | EC50 ([2]; MOLT-4 cell line, read-out: Haematopoietic & Lymphoid tumors, EC50 (μM) MOLT-4): > 10 µM | EC50 ([2]; TF-1 cell line, read-out: Haematopoietic & Lymphoid tumors, EC50 (μM) TF-1): > 10 µM | EC50 ([2]; TOLEDO cell line, read-out: Haematopoietic & Lymphoid tumors, EC50 (μM) TOLEDO): > 10 µM | EC50 ([3]; SNU-398, SNU398 cell line, read-out: Liver cancer, EC50 SNU398): 0.473 µM | EC50 ([3]; HEPG2 cell line, read-out: Liver cancer, EC50 HEPG2): > 10 µM | EC50 ([3]; PLC/PRF/5 cell line, read-out: Liver cancer, EC50 PLC/PRF/5): > 10 µM | EC50 ([4]; A-427, A427 cell line, read-out: Lung cancer, EC50 (μM) A427): > 10 µM | EC50 ([4]; HCC78, HCC-78 cell line, read-out: Lung cancer, EC50 (μM) HCC-78): > 10 µM | EC50 ([4]; NCI-H460 cell line, read-out: Lung cancer, EC50 (μM) NCI-H460): > 10 µM | EC50 ([4]; NCI-H522 cell line, read-out: Lung cancer, EC50 (μM) NCI-H522): > 10 µM | EC50 ([5]; PA-1, PA1 cell line, read-out: Ovarian cancer, EC50 (μM) PA1): > 10 µM | EC50 ([5]; TOV112D, TOV-112D cell line, read-out: Ovarian cancer, EC50 (μM) TOV-112D): > 10 µM | EC50 ([5]; OV-90 cell line, read-out: Ovarian cancer, EC50 (μM) OV-90): > 10 µM | EC50 ([5]; OVCAR-3 cell line, read-out: Ovarian cancer, EC50 (μM) OVCAR-3): 0.554 µM | EC50 ([6]; BXPC-3, BxPC3 cell line, read-out: Pancreatic cancer, EC50 BxPC3): > 10 µM | EC50 ([6]; CAPAN-1, Capan1 cell line, read-out: Pancreatic cancer, EC50 Capan1): > 10 µM | EC50 ([6]; Capan-2, Capan2 cell line, read-out: Pancreatic cancer, EC50 Capan2): > 10 µM | EC50 ([6]; MIA PaCa-2 cell line, read-out: Pancreatic cancer, EC50 MIA PaCa-2): > 10 µM | EC50 ([6]; PANC 05.04 cell line, read-out: Pancreatic cancer, EC50 PANC 05.04): > 10 µM | EC50 ([6]; PANC-1 cell line, read-out: Pancreatic cancer, EC50 PANC-1): > 10 µM | EC50 ([6]; UPAFII cell line, read-out: Pancreatic cancer, EC50 UPAFII): > 10 µM | EC50 ([7]; DU-145, read-out: Prostate cancer EC50 Du-145): > 10 µM | EC50 ([7]; PC-3, PC3 cell line, inhibition of cancer cell proliferation, read-out: Prostate cancer EC50 PC3): > 10 µM | EC50 ([7]; 22Rv1 cell line, inhibition of cancer cell proliferation, read-out: Prostate cancer EC50 22Rv1): 7.43 µM | EC50 ([7]; LNCap clone FGC cell line, inhibition of cancer cell proliferation, read-out: Prostate cancer EC50 LNCap clone FGC): > 10 µM | EC50 ([7]; VCaP (Sigma) cell line, inhibition of cancer cell proliferation, read-out: Prostate cancer EC50 VCaP (Sigma)): > 10 µM
Compound: O=C1CCc2cccc(c2)-c2cncc(c2)NC(=O)c2n[nH]c3ccc(cc23)-c2cncc(c2)CN1 [Compound 62]
EC50 (all 50 cell lines): 8.55 µM
